Drawing on US11554171B2, “Compounds and methods for the targeted degradation of bromodomain-containing proteins” (Arvinas Operations, Inc., priority 2015, dated 2023), this text covers Emax and DC50 for 12 compounds.

This assay relates to c-myc in 22RV-1 cells. As to the kind of experiment: Human c-myc ELISA assay. The assay is classed as cell-based. The settings on record: Homo sapiens; for Emax: 22Rv1, 18 h, read-out: Degradation of BRD4: Maximum inhibition (%) c-Myc ELISA in 22RV1 cells; for DC50: 22Rv1, read-out: Degradation of BRD4: DC50 (uM) c-Myc ELISA in 22RV1 cells. An outline of the steps: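 c-myc levels measured by ELISA in RIPA lysates of 22RV-1 cells, calibrated with a 333-0 pg/ml standard curve. Lysates came from cells exposed for 18 h to an 8-point, 1:3 dose series starting at 300 nM or 1 μM final in 0.1% DMSO. Suppression potency given as DC50.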

Structures are written as SMILES.

What is called DC50 is the concentration giving 50% degradation. For `Cc1sc2c(c1C)C(c1ccc(Cl)cc1)=N[C@@H](CC(=O)N[C@H]1C[C@@H](Oc3ccc4oc(C(=O)N[C@H](C(=O)N5C[C@H](O)C[C@H]5C(=O)N[C@@H](C)c5ccc(-c6scnc6CO)cc5)C(C)(C)C)cc4c3)C1)c1nnc(C)n1-2` [Example 342, (2S,4R)-1-[(2S)-3,3-dimethyl-2-({5-[(1,3-cis)-3-{2-[(9S)-7-(4-chlorophenyl)-4,5,13-trimethyl-3-thia-1,8,11,12-tetraazatricyclo[8.3.0.0^2,^6]trideca-2(6),4,7,10,12-pentaen-9-yl]acetamido}cyclobutoxy]-1-benzofuran-2-yl}formamido)butanoyl]-4-hydroxy-N-[(1S)-1-{4-[4-(hydroxymethyl)-1,3-thiazol-5-yl]phenyl}ethyl]pyrrolidine-2-carboxamide], the Emax worked out at 100% and the DC50 was less than 0.01 µM.
Turning to `Cc1ncsc1-c1ccc([C@H](C)NC(=O)[C@@H]2C[C@@H](OC(=O)CC(C)(C)N)CN2C(=O)[C@@H](NC(=O)c2cc3cc(O[C@H]4C[C@@H](NC(=O)C[C@@H]5N=C(c6ccc(Cl)cc6)c6c(sc(C)c6C)-n6c(C)nnc65)C4)ccc3o2)C(C)(C)C)cc1` [Example 343], the Emax was determined as 87% and the DC50 lay in the range of 0.01 to 0.1 µM.
Take `Cc1ncsc1-c1ccc([C@H](C)NC(=O)[C@@H]2C[C@@H](OC(=O)CCCN)CN2C(=O)[C@@H](NC(=O)c2cc3cc(O[C@H]4C[C@@H](NC(=O)C[C@@H]5N=C(c6ccc(Cl)cc6)c6c(sc(C)c6C)-n6c(C)nnc65)C4)ccc3o2)C(C)(C)C)cc1` [Example 344]: the Emax is 95.9% and the 50% degradation concentration (DC50) is 0.01 to 0.1 µM.
For `Cc1ncsc1-c1ccc([C@H](C)NC(=O)[C@H]2C[C@H](O)CN2C(=O)[C@@H](NC(=O)CN2CCC(O[C@H]3C[C@H](NC(=O)C[C@@H]4N=C(c5ccc(Cl)cc5)c5c(sc(C)c5C)-n5c(C)nnc54)C3)CC2)C(C)(C)C)cc1` [Example 345], in that order: less than 5% and more than 1 µM.
For `Cc1sc2c(c1C)C(c1ccc(Cl)cc1)=N[C@@H](CC(=O)N[C@H]1C[C@H](OC3CCN(CC(=O)N[C@H](C(=O)N4C[C@H](O)C[C@H]4C(=O)N[C@@H](C)c4ccc(-c5scnc5CO)cc4)C(C)(C)C)CC3)C1)c1nnc(C)n1-2` [Example 346], in that order: 90% and 0.01 to 0.1 µM.
For `Cc1ncsc1-c1ccc([C@H](C)NC(=O)[C@H]2C[C@@H](O)CN2C(=O)[C@@H](NC(=O)CN2CCC(O[C@H]3C[C@H](NC(=O)C[C@@H]4N=C(c5ccc(Cl)cc5)c5c(sc(C)c5C)-n5c(C)nnc54)C3)CC2)C(C)(C)C)cc1` [Example 347], in that order: less than 5% and more than 1 µM.
Consider `Cc1ncsc1-c1ccc([C@H](C)NC(=O)[C@@H]2C[C@@H](O)CN2C(=O)[C@H](NC(=O)CN2CCC(O[C@H]3C[C@H](NC(=O)C[C@@H]4N=C(c5ccc(Cl)cc5)c5c(sc(C)c5C)-n5c(C)nnc54)C3)CC2)C(C)(C)C)cc1` [Example 348], for which the Emax was 46% and the DC50 was more than 1 µM.
For `Cc1ncsc1-c1ccc([C@H](C)NC(=O)[C@@H]2C[C@@H](O)CN2C(=O)[C@@H](NC(=O)C[C@@H]2N=C(c3ccc(Cl)cc3)c3c(sc(C)c3C)-n3c(C)nnc32)C(C)(C)C)cc1` [Example 349], in that order: 22% and more than 1 µM.
For `Cc1ncsc1-c1ccc([C@H](C)NC(=O)[C@@H]2C[C@@H](O)CN2C(=O)[C@@H](NC(=O)CN2CCC(O[C@H]3C[C@H](NC(=O)C[C@@H]4N=C(c5ccc(Cl)cc5)c5ccccc5-c5c(C)noc54)C3)CC2)C(C)(C)C)cc1` [Example 350, (2S,4R)-1-[(2S)-3,3-dimethyl-2-(2-{4-[(1,3-trans)-3-{2-[(7S)-9-(4-chlorophenyl)-3-methyl-5-oxa-4,8-diazatricyclo[8.4.0.0^2,^6]tetradeca-1(10),2(6),3,8,11,13-hexaen-7-yl]acetamido}cyclobutoxy]piperidin-1-yl}acetamido)butanoyl]-4-hydroxy-N-[(1S)-1-[4-(4-methyl-1,3-thiazol-5-yl)phenyl]ethyl]pyrrolidine-2-carboxamide], in that order: 100% and less than 0.01 µM.
For `Cc1ncsc1-c1ccc([C@H](CO)NC(=O)[C@@H]2C[C@@H](O)CN2C(=O)[C@@H](NC(=O)CN2CCC(O[C@H]3C[C@H](NC(=O)C[C@@H]4N=C(c5ccc(Cl)cc5)c5c(sc(C)c5C)-n5c(C)nnc54)C3)CC2)C(C)(C)C)cc1` [Example 351, (2S,4R)-1-[(2S)-3,3-dimethyl-2-(2-{4-[(1,3-trans)-3-{2-[(9S)-7-(4-chlorophenyl)-4,5,13-trimethyl-3-thia-1,8,11,12-tetraazatricyclo[8.3.0.0^2,^6]trideca-2(6),4,7,10,12-pentaen-9-yl]acetamido}cyclobutoxy]piperidin-1-yl}acetamido)butanoyl]-4-hydroxy-N-[(1R)-2-hydroxy-1-[4-(4-methyl-1,3-thiazol-5-yl)phenyl]ethyl]pyrrolidine-2-carboxamide], in that order: 100% and less than 0.01 µM.
For the compound `Cc1ncsc1-c1ccc([C@@H](CO)NC(=O)[C@@H]2C[C@@H](O)CN2C(=O)[C@@H](NC(=O)CN2CCC(O[C@H]3C[C@H](NC(=O)C[C@@H]4N=C(c5ccc(Cl)cc5)c5c(sc(C)c5C)-n5c(C)nnc54)C3)CC2)C(C)(C)C)cc1` [Example 352, (2S,4R)-1-[(2S)-3,3-dimethyl-2-(2-{4-[(1,3-trans)-3-{2-[(9S)-7-(4-chlorophenyl)-4,5,13-trimethyl-3-thia-1,8,11,12-tetraazatricyclo[8.3.0.0^2,^6]trideca-2(6),4,7,10,12-pentaen-9-yl]acetamido}cyclobutoxy]piperidin-1-yl}acetamido)butanoyl]-4-hydroxy-N-[(1S)-2-hydroxy-1-[4-(4-methyl-1,3-thiazol-5-yl)phenyl]ethyl]pyrrolidine-2-carboxamide], the Emax was less than 20% and the DC50 was more than 1 µM.
For `Cc1ncsc1-c1ccc([C@H](C)NC(=O)[C@@H]2C[C@@H](O)CN2C(=O)[C@@H](NC(=O)CN2CCC(N3CCC(NC(=O)C[C@@H]4N=C(c5ccc(Cl)cc5)c5c(sc(C)c5C)-n5c(C)nnc54)CC3)CC2)C(C)(C)C)cc1` [Example 353, (2S,4R)-1-[(2S)-2-{2-[4-(4-{2-[(9S)-7-(4-chlorophenyl)-4,5,13-trimethyl-3-thia-1,8,11,12-tetraazatricyclo[8.3.0.0^2,6]trideca-2(6),4,7,10,12-[0261]pentaen-9-yl]acetamido}piperidin-1-yl)piperidin-1-yl]acetamido}-3,3-dimethylbutanoyl]-4-hydroxy-N-[(1S)-1-[4-(4-methyl-1,3-thiazol-5-yl)phenyl]ethyl]pyrrolidine-2-carboxamide], in that order: more than 90% and 0.1 to 1 µM.
